Our source for the IC50 and EC50 values is patent US9605003B2, “Heterocyclic compounds and uses thereof” (Infinity Pharmaceuticals, Inc., priority 2011, dated 2017).

For test [1], the target named is T1, PI3Kα (Homo sapiens, UniProt P42336).
T1 construct: purchased Millipore Corporation 14-602-K
Put plainly: PI3 Kinase HTRF assay, PI3Kα. Type of test: biochemical. The note with it: Between 1 μM and 10 μM; read-out: PI3K α IC50. The text has this:
(§1) A PI3-Kinase HTRF® assay kit (cat No. 33-016) purchased from Millipore Corporation was used to screen compounds provided herein. This assay used specific, high affinity binding of the GRP1 pleckstrin homology (PH) domain to PIP3, the product of a Class 1A or 1B PI3 Kinase acting on its physiological substrate PIP2. During the detection phase of the assay, a complex was generated between the GST-tagged PH domain and biotinylated short chain PIP3. The biotinylated PIP3 and the GST-tagged PH domain recruited fluorophores (Streptavidin-Allophycocyanin and Europium-labeled anti-GST respectively) to form the fluorescence resonance energy transfer (FRET) architecture, generating a stable time-resolved FRET signal. The FRET complex was disrupted in a competitive manner by non-biotinylated PIP3, a product formed in the PI3 Kinase assay.
(§2) PI3 Kinase α, β, γ and δ activity was assayed using the PI3 Kinase HTRF® assay kit (catalogue No. 33-016) purchased from Millipore Corporation. Purified recombinant PI3Kα (catalogue No. 14-602-K), PI3Kβ (catalogue No. 14-603-K), PI3Kγ (catalogue No. 14-558-K) and PI3Kδ (catalogue No. 14-604-K) were obtained from Millipore Corporation. Purified recombinant PI3K enzyme was used to catalyze the phosphorylation of phosphatidylinositol 4,5-bisphosphate (PIP2 at 10 μM) to phosphatidylinositol 3,4,5-trisphosphate (PIP3) in the presence of 10 μM ATP. The assay was carried out in 384-well format and detected using a Perkin Elmer EnVision Xcite Multilabel Reader. Emission ratios were converted into percent inhibitions and imported into GraphPad Prism software. The concentration necessary to achieve inhibition of enzyme activity by 50% (IC50) was calculated using concentrations ranging from 20 μM to 0.1 nM (12-point curve). IC50 values were determined using a nonlinear regression model available in GraphPad Prism 5.

For test [2], the target named is T2, PI3Kβ (Homo sapiens, UniProt P42338).
T2 construct: purchased Millipore Corporation 14-603-K
Put plainly: PI3 Kinase HTRF assay, PI3Kβ. In kind it is biochemical. The note with it: Between 1 μM and 10 μM; read-out: PI3K β IC50.
Source text: as §1, §2
(In TR-FRET formats the signal depends on donor and acceptor labels being close together.)

In test [3] the test system is Balb/c splenic B cells. In words: B cell activation and proliferation assay (Alamar Blue). In kind it is cell-based. Particulars: Mus musculus. How it is done: The ability of one or more subject compounds to inhibit B cell activitation and proliferation is determined according to standard procedures known in the art. For example, an in vitro cellular proliferation assay is established that measures the metabolic activity of live cells. The assay is performed in a 96 well microtiter plate using Alamar Blue reduction. Balb/c splenic B cells are purified over a Ficoll-Paque™ PLUS gradient followed by magnetic cell separation using a MACS B cell Isolation Kit (Miletenyi). Cells are plated in 90 μl at 50,000 cells/well in B Cell Media (RPMI+10% FBS+Penn/Strep+50 μM bME+5 mM HEPES). A compound provided herein is diluted in B Cell Media and added in a 10 μl volume. Plates are incubated for 30 min at 37° C. and 5% CO2 (0.2% DMSO final concentration). A 50 μl B cell stimulation cocktail is then added containing either 10 μg/ml LPS or 5 μg/ml F(ab′)2 Donkey anti-mouse IgM plus 2 ng/ml recombinant mouse IL4 in B Cell Media. Plates are incubated for 72 hours at 37° C. and 5% CO2. A volume of 15 μL of Alamar Blue reagent is added to each well and plates are incubated for 5 hours at 37° C. and 5% CO2. Alamar Blue fluoresce is read at 560Ex/590Em, and IC50 or EC50 values are calculated using GraphPad Prism 5.
For orientation: Alamar Blue is a resazurin reagent that responds to reducing activity.

Test [4] relates to phospho-AKT in RAJI cells. Put plainly: PI3Kδ selective cellular assay, phospho-AKT in anti-IgM stimulated RAJI cells. Particulars: Homo sapiens; RAJI cell model. In kind it is cell-based. The text has this: A compound's ability in selectively inhibiting PI3Kδ can be assessed using RAJI cells, i.e., B lymphocyte cells derived from lymphoma patients. Briefly, serum-starved RAJI cells are stimulated with anti-human IgM, thereby causing signaling through the B-cell receptors, as described in, for example, He et al., Leukemia Research (2009) 33: 798-802. B-cell receptor signaling is important for the activation, differentiation, and survival of B cells and certain B-cell derived cancers. Reduction of phospho-AKT is indicative of compounds that may inhibit B-cell proliferation and function in certain diseases. By monitoring the reduction of phospho-AKT in stimulated RAJI cells (using for example, phospho-AKT antibodies), a compound's potential efficacy in selectively inhibiting PI3Kδ can be assessed.
Certain compounds provided herein (e.g., Compounds 5, 38, 103, 105, 106, 107, 108, and 109) were tested in RAJI cell model using procedures as described above.

Test [5] deals with phospho-AKT in RAW 264.7 cells. In words: PI3Kγ selective cellular assay, phospho-AKT in C5a stimulated RAW 264.7 cells. In kind it is cell-based. Particulars: Mus musculus, RAW264.7; RAW 264.7 cell model; range between 100 nM and 1 μM (bounds carry own units). The text has this:
A compound's ability in selectively inhibiting PI3Kγ can be assessed using RAW264.7 macrophages. Briefly, serum-starved PAW264.7 cells are stimulated with a known GPCR agonist C5a. (See, e.g., Camps et al., Nature Medicine (2005) 11(9): 936-943). Cells can be treated with test compounds prior to, simultaneously with, or subsequent to the stimulation by C5a. RAW 264.7 cells respond to the complement component fragment C5a through activation of the C5a receptor, and the C5a receptor activates macrophages and induces cell migration. Test compounds' ability to inhibit C5a-mediated AKT phosphorylation is indicative of selective inhibition of PI3Kγ. Thus, by monitoring the reduction of phospho-AKT in stimulated RAW 264.7 cells (using for example, phospho-AKT antibodies), a compound's potential efficacy in selectively inhibiting PI3Kγ can be assessed.
Certain compounds provided herein (e.g., Compounds 5, 38, 103, 105, 106, 107, 108, and 109) were tested in RAW 264.7 cell model using procedures as described above.

T1 sequence (P42336 whole entry): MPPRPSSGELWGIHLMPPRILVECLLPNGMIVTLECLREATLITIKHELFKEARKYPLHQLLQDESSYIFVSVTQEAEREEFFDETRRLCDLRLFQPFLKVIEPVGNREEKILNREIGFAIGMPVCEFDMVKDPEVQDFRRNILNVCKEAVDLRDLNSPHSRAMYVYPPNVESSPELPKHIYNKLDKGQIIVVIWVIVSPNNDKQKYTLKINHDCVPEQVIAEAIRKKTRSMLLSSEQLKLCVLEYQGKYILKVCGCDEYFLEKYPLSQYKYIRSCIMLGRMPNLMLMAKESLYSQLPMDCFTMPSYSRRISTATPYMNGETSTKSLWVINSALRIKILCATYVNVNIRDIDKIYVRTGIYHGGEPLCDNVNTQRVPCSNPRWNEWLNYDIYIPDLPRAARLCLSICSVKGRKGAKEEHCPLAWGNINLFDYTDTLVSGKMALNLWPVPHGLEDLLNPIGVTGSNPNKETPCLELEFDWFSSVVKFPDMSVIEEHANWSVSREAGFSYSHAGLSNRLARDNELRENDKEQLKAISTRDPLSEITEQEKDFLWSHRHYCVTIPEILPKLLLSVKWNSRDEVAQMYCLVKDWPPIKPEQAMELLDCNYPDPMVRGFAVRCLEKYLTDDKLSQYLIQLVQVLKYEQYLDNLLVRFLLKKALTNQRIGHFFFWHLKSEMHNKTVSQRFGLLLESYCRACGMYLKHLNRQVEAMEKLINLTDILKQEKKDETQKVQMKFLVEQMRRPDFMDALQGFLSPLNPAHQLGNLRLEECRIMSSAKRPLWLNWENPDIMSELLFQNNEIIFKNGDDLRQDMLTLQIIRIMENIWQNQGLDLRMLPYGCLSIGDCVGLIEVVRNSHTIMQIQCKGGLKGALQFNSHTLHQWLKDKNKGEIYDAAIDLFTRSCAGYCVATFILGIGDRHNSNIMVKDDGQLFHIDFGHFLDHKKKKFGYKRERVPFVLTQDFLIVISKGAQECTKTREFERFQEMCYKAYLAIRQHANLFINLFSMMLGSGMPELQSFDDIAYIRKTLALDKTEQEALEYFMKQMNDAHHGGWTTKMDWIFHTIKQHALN
T1 sequence (P27986 whole entry partner): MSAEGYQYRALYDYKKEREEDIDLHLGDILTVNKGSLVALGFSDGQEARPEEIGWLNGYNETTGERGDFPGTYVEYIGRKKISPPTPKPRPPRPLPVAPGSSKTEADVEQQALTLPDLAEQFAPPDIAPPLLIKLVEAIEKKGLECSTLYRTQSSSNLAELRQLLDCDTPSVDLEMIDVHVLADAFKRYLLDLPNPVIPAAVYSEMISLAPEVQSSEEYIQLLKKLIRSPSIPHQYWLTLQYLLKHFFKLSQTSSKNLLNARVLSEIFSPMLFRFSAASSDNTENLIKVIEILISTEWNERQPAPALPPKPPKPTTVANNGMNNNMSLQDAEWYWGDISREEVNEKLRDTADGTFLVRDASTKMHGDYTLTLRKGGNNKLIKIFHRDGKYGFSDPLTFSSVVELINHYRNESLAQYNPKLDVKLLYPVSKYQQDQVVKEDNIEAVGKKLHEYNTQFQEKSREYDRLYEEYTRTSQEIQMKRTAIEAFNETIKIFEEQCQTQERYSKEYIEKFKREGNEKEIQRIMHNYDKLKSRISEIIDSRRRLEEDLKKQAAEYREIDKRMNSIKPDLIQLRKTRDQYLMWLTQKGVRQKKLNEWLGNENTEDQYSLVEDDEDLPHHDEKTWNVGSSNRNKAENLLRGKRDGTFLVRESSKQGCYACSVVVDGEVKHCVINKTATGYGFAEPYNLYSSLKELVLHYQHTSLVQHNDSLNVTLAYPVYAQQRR
T2 sequence (P42338 whole entry): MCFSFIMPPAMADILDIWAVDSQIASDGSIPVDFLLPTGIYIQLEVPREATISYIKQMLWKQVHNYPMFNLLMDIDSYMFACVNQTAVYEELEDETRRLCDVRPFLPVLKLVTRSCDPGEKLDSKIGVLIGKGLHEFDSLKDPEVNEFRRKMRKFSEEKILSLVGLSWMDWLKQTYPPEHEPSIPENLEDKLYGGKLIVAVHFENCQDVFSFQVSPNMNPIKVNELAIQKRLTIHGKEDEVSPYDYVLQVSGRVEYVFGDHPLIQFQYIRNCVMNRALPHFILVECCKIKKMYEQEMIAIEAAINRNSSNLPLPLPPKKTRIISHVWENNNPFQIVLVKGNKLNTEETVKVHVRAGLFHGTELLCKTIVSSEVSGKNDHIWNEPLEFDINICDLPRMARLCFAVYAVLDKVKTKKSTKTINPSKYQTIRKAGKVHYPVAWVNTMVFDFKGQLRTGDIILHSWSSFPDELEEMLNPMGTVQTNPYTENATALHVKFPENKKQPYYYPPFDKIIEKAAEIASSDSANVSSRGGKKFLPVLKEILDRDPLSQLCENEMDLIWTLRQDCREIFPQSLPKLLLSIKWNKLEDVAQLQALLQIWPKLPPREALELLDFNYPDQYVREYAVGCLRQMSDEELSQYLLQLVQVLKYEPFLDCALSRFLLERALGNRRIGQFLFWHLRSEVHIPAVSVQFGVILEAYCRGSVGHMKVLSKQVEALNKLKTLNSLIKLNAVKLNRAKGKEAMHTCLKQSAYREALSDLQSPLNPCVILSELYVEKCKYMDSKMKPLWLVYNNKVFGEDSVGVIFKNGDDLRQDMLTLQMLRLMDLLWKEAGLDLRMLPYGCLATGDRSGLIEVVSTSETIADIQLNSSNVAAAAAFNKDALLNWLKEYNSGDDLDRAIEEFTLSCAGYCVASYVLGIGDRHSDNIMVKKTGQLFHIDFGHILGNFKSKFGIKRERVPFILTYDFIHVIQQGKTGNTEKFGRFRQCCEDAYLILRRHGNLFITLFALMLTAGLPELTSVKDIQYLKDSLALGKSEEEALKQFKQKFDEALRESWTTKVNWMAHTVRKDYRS
T2 sequence (P27986 2-724 partner limits assumed): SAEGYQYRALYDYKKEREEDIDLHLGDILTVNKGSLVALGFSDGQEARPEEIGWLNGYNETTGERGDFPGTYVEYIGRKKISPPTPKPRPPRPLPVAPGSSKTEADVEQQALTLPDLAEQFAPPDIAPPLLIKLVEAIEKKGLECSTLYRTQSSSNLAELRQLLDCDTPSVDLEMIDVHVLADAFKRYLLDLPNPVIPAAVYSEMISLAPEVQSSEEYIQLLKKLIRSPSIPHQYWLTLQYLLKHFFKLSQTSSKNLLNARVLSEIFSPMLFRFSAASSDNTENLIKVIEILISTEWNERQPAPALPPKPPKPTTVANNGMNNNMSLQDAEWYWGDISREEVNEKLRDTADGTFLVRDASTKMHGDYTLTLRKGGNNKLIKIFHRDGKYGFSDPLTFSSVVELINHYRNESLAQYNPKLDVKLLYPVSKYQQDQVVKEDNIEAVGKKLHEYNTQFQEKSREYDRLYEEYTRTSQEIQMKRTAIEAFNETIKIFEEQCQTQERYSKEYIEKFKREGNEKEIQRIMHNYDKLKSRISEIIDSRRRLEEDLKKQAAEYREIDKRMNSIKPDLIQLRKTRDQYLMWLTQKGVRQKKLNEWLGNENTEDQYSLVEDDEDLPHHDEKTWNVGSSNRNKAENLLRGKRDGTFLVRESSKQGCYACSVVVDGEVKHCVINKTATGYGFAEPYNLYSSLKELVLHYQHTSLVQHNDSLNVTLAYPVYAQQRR

Turning to `CCCCc1cccc2cc([C@H](C)Nc3ncnc4scnc34)n(-c3ccccc3)c(=O)c12` [Compound 96], the IC50 in test [1] and in test [2] was 1 to 10 µM throughout. For the same compound, in test [3] (Less than 100 nanoMolar), the EC50 (commonly the concentration at which the effect is half-maximal) was under 0.1 µM.

Regarding `Cc1cccc2cc([C@H](C)Nc3ncnc4scnc34)n(-c3cccc(F)c3)c(=O)c12` [Compound 100], the IC50 (usually the concentration at which inhibition is half-maximal) in test [1] was 1 to 10 µM. In test [3] (Less than 100 nanoMolar), this compound had an EC50 of under 0.1 µM.

With `Cc1c(-c2cccc3cc([C@H](C)Nc4ncnc5scnc45)n(-c4ccccc4)c(=O)c23)cnn1C` [Compound 43], the IC50 in test [1] and in test [2] was 1 to 10 µM in each case. This compound came in with an EC50 in test [3] (Less than 100 nanoMolar) of under 0.1 µM.

For the compound `C[C@H](Nc1ncnc2scnc12)c1cc2cccc(-c3cnn(CCN4CCOCC4)c3)c2c(=O)n1-c1ccccc1` [Compound 48], the IC50 in test [1] was 1 to 10 µM. In addition, the EC50 in test [3] (Less than 100 nanoMolar) was under 0.1 µM.

`COc1ncc(-c2cccc3cc([C@H](C)Nc4ncnc5scnc45)n(C4CC4)c(=O)c23)cn1` [Compound 61]: the IC50 in test [1] and in test [2] was 1 to 10 µM each time. The compound further yielded an EC50 in test [3] (Less than 100 nanoMolar) of under 0.1 µM.

Take `Cc1ncc(-c2cccc3cc([C@H](C)Nc4ncnc5scnc45)n(C4CC4)c(=O)c23)cn1` [Compound 62]: the IC50 in test [1] and in test [2] was 1 to 10 µM throughout. The compound also returned a half-maximal effective concentration (EC50) in test [3] (Less than 100 nanoMolar) of under 0.1 µM.

For `C[C@H](Nc1ncnc2scnc12)c1cc2cccc(-c3ccc(F)c(F)c3)c2c(=O)n1-c1ccccc1` [Compound 22], the IC50 in test [1] was 1 to 10 µM. This compound had an EC50 in test [3] (Less than 100 nanoMolar) of under 0.1 µM.

Regarding `C[C@H](Nc1ncnc2scnc12)c1cc2cccc(Cl)c2c(=O)n1-c1ccon1` [Compound 105], the IC50 was under 0.1 µM in test [4] and 0.1 to 1 µM in test [5].

As for `C[C@H](Nc1ncnc2scnc12)c1cc2cccc(C=O)c2c(=O)n1-c1ccccc1` [Compound 83], the IC50 in test [1] was 1 to 10 µM. Further, the EC50 in test [3] (Less than 100 nanoMolar) is under 0.1 µM.

`C[C@H](Nc1ncnc2scnc12)c1cc2cccc(-c3ccc(N(C)C)nc3)c2c(=O)n1-c1ccccc1` [Compound 47]: the 50% inhibitory concentration (IC50) in test [1] is 1 to 10 µM. This compound also returned an EC50 in test [3] (Less than 100 nanoMolar) of under 0.1 µM.

Take `COc1ncc(-c2cccc3cc([C@H](C)Nc4ccnc5scnc45)n(-c4ccccc4)c(=O)c23)cn1` [Compound 89]: the IC50 in test [1] was in the range of 1 to 10 µM. In test [3] (Less than 100 nanoMolar), this compound came in with a concentration for a half-maximal effect (EC50) of under 0.1 µM.

With `COc1ncc(-c2cccc3cc([C@H](C)Nc4ncnc5scnc45)n(-c4ccccc4)c(=O)c23)cc1C(F)(F)F` [Compound 58], the IC50 in test [1] and in test [2] was 1 to 10 µM in each case. Besides, in test [3] (Less than 100 nanoMolar), the EC50 is under 0.1 µM.

With `C[C@H](Nc1ccnc2scnc12)c1cc2cccc(Cl)c2c(=O)n1-c1cccc(F)c1` [Compound 90], the IC50 in test [1] was 1 to 10 µM. Also, the EC50 in test [3] (Less than 100 nanoMolar) was under 0.1 µM.

Turning to `C[C@H](Nc1ncnc2scnc12)c1cc2cccc(/C=C/c3ccccc3)c2c(=O)n1-c1ccccc1` [Compound 49], the IC50 in test [1] and in test [2] was 1 to 10 µM in each case. Further, in test [3] (Between 100 nM and 1 μM), the EC50 is 0.1 to 1 µM.
